In patent US20260224532A1, “ESTROGEN RECEPTOR BETA LIGANDS FOR THE PREVENTION AND TREATMENT OF MULTIPLE SCLEROSIS (MS) AND OTHER DEMYELINATING, INFLAMMATORY AND NEURODEGENERATIVE DISEASES” (The Board of Trustees of the University of Illinois, priority 2023, published 2026):
“Also recorded” adds a separate entry of the source. Where two headings read alike, the source gives them in different places.

Key:
[1] = tested on: Cuprizone-Induced Demyelinated Mouse Model; assay: Myelin recovery in the cuprizone-induced demyelinated mouse model (MOG IHC, Corpus Callosum); format: in vivo, C57BL/6 female mice
Protocol: The Cuprizone assay of demyelination-remyelination was conducted by the methods described previously (Moore et al. 2013; Crawford et al, 2009a,b). A group of animals was on normal diet (N groups). The remainder of the mice were divided into groups of 5 and all of these groups of mice were fed cuprizone diet at (0.2% cuprizone mixed in chow). After 6 weeks on cuprizone diet-induced demyelination, a group of 5 mice were perfused (DM group). The other groups of mice were switched to normal diet for 1.5 weeks to initiate remyelination and were treated with either (i) Vehicle (SC+V) or (ii) test compound at a dose of 5 mg/kg. […] After 1.5 weeks of normal diet-induced remyelination, the mice were perfused. Brains were collected, cryoprotected, embedded, cut, and IHC for myelin oligodendrocyte glycoproteins (MOG) was performed. Cuprizone study results after 1.5-weeks treatment with the designated 7-substituted compounds via SC administration following 6 weeks cuprizone treatment of (C57BL/6) female mice are shown in FIG. 5. The height of each bar graph represents level of myelination assessed by the expression of MOG in the white matter tracks of the Corpus Callosum area quantified by immunohistochemical analysis (IHC) after staining with a MOG antibody. N: Normal diet, DM: Demyelinated status after 6 weeks cuprizone treatment, SC-Veh: Spontaneous remyelination after injection with matrix in saline solution only (without compound; recovery is only about 40%). (Mice: ~2 months age, SC: Subcutaneous injection, n=5). Cuprizone study results for the 3-weeks treatment with the 6-substituted compound 17 via SC administration following the 6 weeks of 0.2% cuprizone treatment of C57BL/6 female mice are shown in FIG. 6. The height of each bar graph represents level of myelination assessed by the expression of MOG in the white matter tracks of the Corpus Callosum area quantified by immunohistochemical analysis (IHC) after staining with a MOG antibody. N: Normal diet, DM: Demyelinated status after 6 weeks cuprizone treatment, SC-Veh: Spontaneous remyelination after injection with matrix in saline solution only (without compound; recovery is only about 40%). (Mice: ~2 months age, SC: Subcutaneous injection, n=5~6). […] (Mice: ~2 months age, s.c.: Subcutaneous administration, n=5).

[2] = molecular target: T1, purified, full length human ERβ (Homo sapiens, UniProt Q92731); assay: Relative binding affinity (RBA) radiometric competitive binding assay, ERβ; conditions: for β/α (ERβ/ERα selectivity): ratio of RBA ERβ to RBA ERα; for RBA ERβ: relative binding affinity, E2 (estradiol) is 100%, tritiated estradiol tracer
T1 construct: purified, full length human ERα and ERβ

[3] = molecular target: T2, purified, full length human ERα (Homo sapiens, UniProt P03372); assay: Relative binding affinity (RBA) radiometric competitive binding assay, ERα; conditions: relative binding affinity, E2 (estradiol) is 100%; tritiated estradiol tracer
T2 construct: purified, full length human ERα and ERβ
T2 sequence (P03372 1-595): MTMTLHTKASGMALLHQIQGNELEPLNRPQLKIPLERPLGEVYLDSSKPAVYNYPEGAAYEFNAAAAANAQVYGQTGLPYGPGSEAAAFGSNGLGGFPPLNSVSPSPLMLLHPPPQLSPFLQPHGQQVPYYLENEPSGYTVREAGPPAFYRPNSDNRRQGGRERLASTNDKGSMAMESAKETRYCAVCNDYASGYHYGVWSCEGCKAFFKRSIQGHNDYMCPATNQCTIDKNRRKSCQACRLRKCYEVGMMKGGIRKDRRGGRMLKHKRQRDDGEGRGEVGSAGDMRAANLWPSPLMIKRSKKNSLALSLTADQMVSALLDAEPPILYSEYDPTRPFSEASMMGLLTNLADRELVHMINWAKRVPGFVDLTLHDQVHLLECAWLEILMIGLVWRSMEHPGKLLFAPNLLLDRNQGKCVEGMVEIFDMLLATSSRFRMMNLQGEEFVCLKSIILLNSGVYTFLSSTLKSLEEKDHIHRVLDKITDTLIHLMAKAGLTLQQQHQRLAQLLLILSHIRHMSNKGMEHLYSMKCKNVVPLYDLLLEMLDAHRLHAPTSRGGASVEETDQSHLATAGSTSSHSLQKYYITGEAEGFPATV

Primary OPCs = assay: Primary OPC culture: MBP+ OL differentiation and total cell count (DAPI); format: cell-based, mouse; conditions: for number of MBP+ OLs with increased percentage of branched OLs, compared to vehicle-treated cells: 10 nM; for MBP expression / number of MBP+ OLs, compared to vehicle-treated cells: 1 nM
Protocol: Primary OPC Cultures: Primary OPCs, isolated from postnatal day P1 C57BL/6 male and female mouse cortices as described previously, are treated with 10 nM ligands in differentiating medium for […] (Tiwari-Woodruff et al., 2001; Tiwari-Woodruff et al., 2006). Primary OPC are cultured into 8-well chamber slides (three wells per condition, 2.5×10^5 cells/well) for three days to attach and five days in differentiating media (consisting of DMEM-F12 with triiodothyronine- and thyroxine-containing Sato as well as penicillin, streptomycin, insulin, N-acetyl-L-cysteine, forskolin, ciliary neurotrophic factor, neurotrophin-3, and platelet-derived growth factor […] (Tiwari-Woodruff et al., 2001)). A positive control (IndC1), a negative control (Vehicle consisting of the media+EtOH mixture used to dissolve IndCl), and a normal control (differentiating media alone) are used for comparison. At the end of the treatment period, cells are fixed, stained by immunocytochemistry (primary antibody polyclonal chicken myelin basic protein (MBP, Millipore AB9348), and co-stained with nuclear stain-DAPI), and imaged with an Olympus BX61 confocal microscope (Olympus America Inc., Center Valley, PA) at 10× magnification (3 images per well). Cells are counted using the ImageJ multipoint tool, and counts are then divided by the image area (mm^2). Average cell density for each condition is then divided by the normal condition cell density. Analysis of OL differentiation consists of counting the number of MBP+ cells and process extensions that are longer than the respective cell-body diameter and tracking the number of highly branched MBP+ cells (with three or more processes) (Monnerie et al., 2017). Statistics are performed using GraphPad Prism 6 Software (La Jolla, CA). One-way ANOVA with Tukey's posthoc test for multiple comparisons is used to generate p-values, and data are presented as mean±SEM (with α≤0.05).
FIG. 1A-1D show the effects of treatment with the 7-substituted indazole compounds on the expression of myelin basic protein in OLs (MBP^+-OLs, top two panels) as an indication of murine oligodendrocyte precursor cell (OPC) differentiation, as well as the count of the total cells as an indication of cell proliferation/survival (DAPI nucleus stain, bottom two panels). The cells were treated with the listed compounds at 10 nM (FIG. 1A, 1B) and at 1 nM (FIG. 1C, 1D).

uterus = assay: Uterotrophic effect (uterine weight) in non-ovariectomized mice of the cuprizone study; format: in vivo; conditions: daily SC 5 mg/kg
Source text: The uterus was taken from the mice treated with compounds 5 and 7 from the recovery assessment study using the Cuprizone-induced demyelination model. Uterine weight for each compound is represented by % uterus/body weight.
Estrogens increase uterine weight by acting primarily through ERα (Hewitt and Korach, 2003).

[4] = 2-hour single-point pharmacokinetic (PK) study, blood and brain; format: in vivo, C57BL/6 female mice; conditions: for Kp at 2 h: female, C57BL/6, mouse, brain / blood
Protocol: The 2-Hour single-point pharmacokinetics for IndCl-7-Cl (compound 7), IndCl-7-Br-3′-OH (compound 12), and IndCl-7-Cl-3′-F (compound 14) was examined in (two and half month old C57BL/6 female) mice after single subcutaneous (SC) injection or oral gavage (PO) in 0.1 mL at a dose 5 mg/kg for SC and 25 mg/kg for PO administration. The vehicle for SC administration was 0.1 mL 10% ethanol and 90% Miglyol 812N or 10% DMSO saline and for PO administration, 0.1 mL 2-hydroxypropyl-beta-cyclodextrin [HPCD]/40% aqueous solution MW ~1540. Two hours after injection blood and brain were collected and processed for quantification of the administered compound at the University of Illinois Metabolomics Core Facility by liquid chromatography-mass spectrometry (LC-MS/MS). The bar graphs indicate the analyzed concentration in the blood and the brain in nM units for each sample and each administered method. The brain uptake ratio over the blood of compound 7 (IndCl-7-C1) in the PO and SC pharmacokinetic study is as high as ~7 and ~6, respectively.
For subcutaneous (SC) injection, the compound made up as a homogeneous suspension in 10% ethanol and 90% Miglyol 812N (vehicle; Sasol) and a 0.1 mL dose was administered by SC injection at a dose of 5 mg/kg body weight. For PO administration, the compound was dissolved into 40% (2-Hydroxypropyl)-β-cyclodextrin (Mw~ 1540)(HP-CD) and administered via oral gavage in a volume of 0.1 mL at a dose of 25 mg/kg body weight.

[5] = SC 5 mg/kg, 1.5-weeks treatment after 6 weeks cuprizone

T1 sequence (Q92731 whole entry): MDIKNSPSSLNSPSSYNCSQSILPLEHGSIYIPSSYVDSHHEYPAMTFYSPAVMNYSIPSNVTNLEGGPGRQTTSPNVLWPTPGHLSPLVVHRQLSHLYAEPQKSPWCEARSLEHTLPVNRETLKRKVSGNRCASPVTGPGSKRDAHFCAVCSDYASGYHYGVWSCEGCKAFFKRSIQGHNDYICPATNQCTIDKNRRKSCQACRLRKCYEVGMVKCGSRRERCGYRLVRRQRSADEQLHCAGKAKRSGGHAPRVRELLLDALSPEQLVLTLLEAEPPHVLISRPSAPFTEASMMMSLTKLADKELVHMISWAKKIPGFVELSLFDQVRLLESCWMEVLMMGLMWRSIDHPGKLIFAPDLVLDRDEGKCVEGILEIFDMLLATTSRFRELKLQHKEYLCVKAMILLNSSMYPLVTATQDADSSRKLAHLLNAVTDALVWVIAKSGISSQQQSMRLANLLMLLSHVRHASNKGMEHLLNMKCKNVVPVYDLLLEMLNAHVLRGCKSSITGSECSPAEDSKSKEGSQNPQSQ

For `Oc1cc(Cl)c2nn(-c3ccc(O)c(F)c3)c(Cl)c2c1` [Compound 14, 3,7-dichloro-2-(3-fluoro-4-hydroxyphenyl)-2H-indazol-5-ol], the “remyelination (MOG expression in Corpus Callosum)” value (from here on “remyelination”) [1, 5] was “somewhat less remyelination”, the “β/α (ERβ/ERα selectivity)” value [2] was 38.3 and the “RBA ERβ” value [2] was 32.96%. The “RBA ERα” value [3] was 0.86% and the “number of MBP+ OLs with increased percentage of branched OLs, compared to vehicle-treated cells” value (Primary OPCs) was “significant increase”.

For `Oc1cccc(-n2nc3c(Br)cc(O)cc3c2Cl)c1` [Compound 12, 7-Bromo-3-chloro-2-(3-hydroxyphenyl)-2H-indazol-5-ol], the “remyelination” value [1, 5] was “does not accelerate remyelination”, the “β/α (ERβ/ERα selectivity)” value [2] was 246 and the “RBA ERβ” value [2] was 39.4%. For the same compound, the “selectivity of binding to ERβ vs ERα” value ([2]; text statement of the β/α ratio) was 246 fold and the “RBA ERα” value [3] was 0.16%.

In the case of `Oc1ccc(-n2nc3c(Br)cc(O)cc3c2I)cc1` [Compound 5, 7-bromo-2-(4-hydroxyphenyl)-3-iodo-2H-indazol-5-ol], the “remyelination” value [1, 5] is reported as “somewhat less remyelination”, the “β/α (ERβ/ERα selectivity)” value [2] is reported as 23 and the “RBA ERα” value [3] is reported as 6.95%. The “number of MBP+ OLs with increased percentage of branched OLs, compared to vehicle-treated cells” value (Primary OPCs) was “significant increase” and the “uterotrophic effect, uterine weight (% uterus/body weight) vs vehicle” value (uterus) was “did not show uterotrophic effects significantly different from mice treated with vehicle alone; also recorded: did not stimulate the uterus weight significantly”.

For `Oc1ccc(-n2nc3c(Cl)cc(O)cc3c2Cl)cc1` [Compound 7, 3,7-dichloro-2-(4-hydroxyphenyl)-2H-indazol-5-ol], the “remyelination” value [1, 5] was “accelerates remyelination, reaching levels at or above the normal myelin level”, the “β/α (ERβ/ERα selectivity)” value [2] was 45 and the “RBA ERα” value [3] was 6.9 ± 2.4%. For the same compound, the “concentration in the brain after PO administration compared with SC injection” value ([4]; PO 25 mg/kg vs SC 5 mg/kg, 2 hours) was “markedly higher”, the “brain uptake (in words)” value ([4]; PO 25 mg/kg, 2 hours) was “selective high brain uptake” and the “brain uptake (in words)” value ([4]; SC 5 mg/kg, 2 hours) was “selective high brain uptake”. For the same compound, the Kp at 2 h ([4]; PO 25 mg/kg, 2 hours after dosing, read-out: brain uptake ratio over the blood) was ~7, the Kp at 2 h ([4]; SC 5 mg/kg, 2 hours after dosing, read-out: brain uptake ratio over the blood) was ~6 and the “MBP expression / number of MBP+ OLs, compared to vehicle-treated cells” value (Primary OPCs) was “particularly significant increase”. The “number of MBP+ OLs with increased percentage of branched OLs, compared to vehicle-treated cells” value (Primary OPCs) was “significant increase” and the “uterotrophic effect, uterine weight (% uterus/body weight) vs vehicle” value (uterus) was “did not show uterotrophic effects significantly different from mice treated with vehicle alone; also recorded: did not stimulate the uterus weight significantly”.

In the case of `Oc1ccc(-n2nc3cc(F)c(O)cc3c2Cl)cc1` [Compound 17, 3-chloro-6-fluoro-2-(4-hydroxyphenyl)-2H-indazol-5-ol], the “remyelination” value ([1]; SC, 3-weeks treatment after 6 weeks of 0.2% cuprizone) is reported as “recover above the normal level; also recorded: accelerate remyelination to reach a level at or above the normal level”, the “β/α (ERβ/ERα selectivity)” value [2] is reported as 48.7 and the “RBA ERβ” value [2] is reported as 47.11%. For the same compound, the “RBA ERα” value [3] was 0.968%, the Kp at 2 h ([4]; PO 25 mg/kg, 2 hours, n=3, read-out: concentration in brain relative to concentration in blood) was 3 and the “MBP expression / number of MBP+ OLs, compared to vehicle-treated cells” value (Primary OPCs) was “good MBP expression; also recorded: significant increase”. The “number of MBP+ OLs with increased percentage of branched OLs, compared to vehicle-treated cells” value (Primary OPCs) was “significant increase”.
